In US4248887A, “Antibacterial compounds, processes for their preparation and compositions containing them” (priority 1978, dated 1981):
≈ marks a conversion by molar mass, not a printed value.

Experiments:
Strep. pyogenes B 2788 = assay: MIC by serial dilution in nutrient agar (human bacteria); conditions: Streptococcus pyogenes, B2788
Strep. pyogenes C 2761 = assay: as above; conditions: Streptococcus pyogenes, C2761
M. dispar H225 = assay: Anti-mycoplasma MIC; format: cell-based
B. subtilis = assay: MIC by serial dilution in nutrient agar (human bacteria); conditions: Bacillus subtilis
[1] = test system: M. alkalescens NCTC 10135; assay: Anti-mycoplasma MIC; format: cell-based
H. influenzae Wy21 = assay: MIC by serial dilution in nutrient agar (human bacteria); conditions: Haemophilus influenzae
Staph. aureus Russell = assay: as above; conditions: Staphylococcus aureus
M. hyorhinis ATCC 23234 = assay: Anti-mycoplasma MIC; format: cell-based; conditions: Mesomycoplasma hyorhinis, ATCC23234
Strep. uberis SPU1 = assay: MIC against veterinary bacteria; conditions: Streptococcus uberis
Past. multocida 1633 = assay: MIC by serial dilution in nutrient agar (human bacteria); conditions: Pasteurella multocida
M. bovis NCTC 10131 = assay: microbe, parasite or virus in culture; format: cell-based; conditions: NCTC10131
Past. multocida PA1 = assay: MIC against veterinary bacteria; conditions: Pasteurella multocida
M. synoviae ATCC 25204 = assay: Anti-mycoplasma MIC; format: cell-based; conditions: Mycoplasmopsis synoviae, ATCC25204
[2] = test system: M. bovigenitalium ATCC 14173; assay: Anti-mycoplasma MIC; format: cell-based
M. pneumoniae 427a = assay: Anti-mycoplasma MIC; format: cell-based; conditions: Mycoplasmoides pneumoniae
Strep. agalactiae SPA1 = assay: MIC against veterinary bacteria; conditions: Streptococcus agalactiae
Staph. aureus 1517 = assay: MIC by serial dilution in nutrient agar (human bacteria); format: cell-based; conditions: Staphylococcus aureus
[3] = test system: M. arthritidis ATCC 14124; assay: Anti-mycoplasma MIC; format: cell-based
Past. haemolytica PA5 = assay: MIC against veterinary bacteria; conditions: Mannheimia haemolytica
[4] = test system: M. suipneumoniae J2206/183b; assay: Anti-mycoplasma MIC; format: cell-based; conditions: Mesomycoplasma hyopneumoniae, J2206/183B
Bord. bronchiseptica BO8 = assay: MIC against veterinary bacteria; conditions: Bordetella bronchiseptica
Staph. aureus Oxford = assay: MIC by serial dilution in nutrient agar (human bacteria); conditions: Staphylococcus aureus
N. catarrhalis 1502 = assay: as above; conditions: Neisseria
H. influenzae Q1 = assay: as above; conditions: Haemophilus influenzae
[5] = test system: Staph. aureus B4 (pen resistant); assay: MIC against veterinary bacteria; conditions: Staphylococcus aureus
Bord. bronchiseptica BO9 = assay: MIC against veterinary bacteria; conditions: Bordetella bronchiseptica
[6] = test system: M. hyosynoviae ATCC 25591; assay: Anti-mycoplasma MIC; format: cell-based
Strep. pneumoniae CN33 = assay: MIC by serial dilution in nutrient agar (human bacteria); conditions: Streptococcus pneumoniae
M. pulmonis JB = assay: Anti-mycoplasma MIC; format: cell-based; conditions: Mycoplasmopsis pulmonis
M. pneumoniae ATCC 15492 = assay: Anti-mycoplasma MIC; format: cell-based; conditions: Mycoplasmoides pneumoniae, ATCC15492, M. pneumoniae ATCC 15492
M. dispar NCTC 10125 = assay: Anti-mycoplasma MIC; format: cell-based
M. gallisepticum S6 = assay: Anti-mycoplasma MIC; format: cell-based; conditions: Mycoplasmoides gallisepticum, S6
M. suipneumoniae Str. 11 = assay: Anti-mycoplasma MIC; format: cell-based; conditions: Mesomycoplasma hyopneumoniae, STR.11
Strep. pyogenes A 64/848 = assay: MIC by serial dilution in nutrient agar (human bacteria); conditions: Streptococcus pyogenes, A64/848
Strep. dysgalactiae SPD1 = assay: MIC against veterinary bacteria; conditions: Streptococcus dysgalactiae
M. fermentans MWKL4 = assay: Anti-mycoplasma MIC; format: cell-based; conditions: Mycoplasmopsis fermentans
M. bovis ATCC 25025 = assay: microbe, parasite or virus in culture; format: cell-based; conditions: ATCC25025
Past. multocida PA2 = assay: MIC against veterinary bacteria; conditions: Pasteurella multocida
[7] = Agar (serial dilution in Friis' agar)
[8] = Broth (Friis' broth, microtiter method)

CCOC(=O)/C=C(\C)CC1OCC(C/C=C/C(C)C(C)O)C(O)C1O (stereo not drawn) [Ethyl, Ethyl Monate C]
MIC (Strep. pyogenes B 2788): 0.5 µg/mL (≈ 1.4 µM) | MIC (Strep. pyogenes C 2761): 5 µg/mL (≈ 14 µM) | MIC (M. dispar H225): 0.078 µg/mL (≈ 0.219 µM) | MIC (B. subtilis): 1 µg/mL (≈ 2.81 µM) | MIC [1]: 0.039 µg/mL (≈ 0.109 µM) | MIC (H. influenzae Wy21): 1 µg/mL (≈ 2.81 µM) | MIC (Staph. aureus Russell): 0.2 µg/mL (≈ 0.561 µM) | MIC (M. hyorhinis ATCC 23234): 2.5 µg/mL (≈ 7.01 µM) | MIC (Strep. uberis SPU1): 5 µg/mL (≈ 14 µM) | MIC (Past. multocida 1633): 5 µg/mL (≈ 14 µM) | MIC (M. bovis NCTC 10131): 0.156 µg/mL (≈ 0.438 µM) | MIC (Past. multocida PA1): 5 µg/mL (≈ 14 µM) | MIC (M. synoviae ATCC 25204): 0.039 µg/mL (≈ 0.109 µM) | MIC [2]: 0.078 µg/mL (≈ 0.219 µM) | MIC (M. pneumoniae 427a; [7]): 5 µg/mL (≈ 14 µM) | MIC (M. pneumoniae 427a; [8]): 10 µg/mL (≈ 28.1 µM) | MIC (Strep. agalactiae SPA1): 20 µg/mL (≈ 56.1 µM) | MIC (Staph. aureus 1517): 0.2 µg/mL (≈ 0.561 µM) | MIC [3]: > 10 µg/mL | MIC (Past. haemolytica PA5): 40 µg/mL (≈ 112 µM) | MIC [4]: 10 µg/mL (≈ 28.1 µM) | MIC (Bord. bronchiseptica BO8): > 80 µg/mL | MIC (Staph. aureus Oxford): 0.2 µg/mL (≈ 0.561 µM) | MIC (N. catarrhalis 1502): 0.2 µg/mL (≈ 0.561 µM) | MIC (H. influenzae Q1): 0.2 µg/mL (≈ 0.561 µM) | MIC [5]: 1.25 µg/mL (≈ 3.51 µM) | MIC (Bord. bronchiseptica BO9): 40 µg/mL (≈ 112 µM) | MIC [6]: 1.25 µg/mL (≈ 3.51 µM) | MIC (Strep. pneumoniae CN33): 2.5 µg/mL (≈ 7.01 µM) | MIC (M. pulmonis JB; [7]): 0.039 µg/mL (≈ 0.109 µM) | MIC (M. pulmonis JB; [8]): 0.156 µg/mL (≈ 0.438 µM) | MIC (M. pneumoniae ATCC 15492; [7]): 5 µg/mL (≈ 14 µM) | MIC (M. pneumoniae ATCC 15492; [8]): 10 µg/mL (≈ 28.1 µM) | MIC (M. dispar NCTC 10125): 0.156 µg/mL (≈ 0.438 µM) | MIC (M. gallisepticum S6): > 10 µg/mL | MIC (M. suipneumoniae Str. 11): 1.25 µg/mL (≈ 3.51 µM) | MIC (Strep. pyogenes A 64/848): 10 µg/mL (≈ 28.1 µM) | MIC (Strep. dysgalactiae SPD1): 20 µg/mL (≈ 56.1 µM) | MIC (M. fermentans MWKL4; [7]): 0.312 µg/mL (≈ 0.875 µM) | MIC (M. fermentans MWKL4; [8]): 0.156 µg/mL (≈ 0.438 µM) | MIC (M. bovis ATCC 25025): 0.156 µg/mL (≈ 0.438 µM) | MIC (Past. multocida PA2): 5 µg/mL (≈ 14 µM)
